Laboratory results: ChEMBL document CHEMBL4665904, “Novel APOL1 Inhibitors for Treating Kidney Diseases” (ACS Med Chem Lett, 2020)

What was measured:
Apolipoprotein L1 = target: T1, Apolipoprotein L1 (Homo sapiens, UniProt O14791); test: Inhibition of APOL1 (unknown origin) in HEK293 cells assessed as thallium influx incubated for 30 mins by FLIPR based thallium influx assay; format: cell-based
T1 sequence (O14791 whole entry): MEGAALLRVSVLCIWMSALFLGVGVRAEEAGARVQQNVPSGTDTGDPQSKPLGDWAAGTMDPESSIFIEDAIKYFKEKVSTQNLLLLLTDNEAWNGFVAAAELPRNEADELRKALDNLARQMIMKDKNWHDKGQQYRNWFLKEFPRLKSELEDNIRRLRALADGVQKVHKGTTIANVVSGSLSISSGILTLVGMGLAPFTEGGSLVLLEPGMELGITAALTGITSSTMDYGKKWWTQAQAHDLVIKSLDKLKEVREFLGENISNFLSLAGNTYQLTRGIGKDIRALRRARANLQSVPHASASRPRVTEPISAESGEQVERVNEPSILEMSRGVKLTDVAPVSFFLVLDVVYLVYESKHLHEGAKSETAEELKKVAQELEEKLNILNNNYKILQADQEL

Trypanosoma brucei = test: Trypanocidal activity against bloodstream forms of Trypanosoma brucei using recombinant APOL1 assessed as cell viability incubated for 16 hrs by cell lysis based alamar blue assay; format: functional, organism-based

IC50 (Apolipoprotein L1) [nM] | SMILES | IC50 (Trypanosoma brucei) [nM]
< 250 | O=C(CCc1c(-c2ccccc2)[nH]c2cc(F)c(F)cc12)N[C@@H]1C(=O)NC[C@H]1O | < 250
< 250 | O=C(CCc1c(-c2ccccc2)[nH]c2c(F)cccc12)N[C@@H]1C(=O)NC[C@H]1O | < 250
< 250 | O=C(CCc1c(-c2ccc(F)cc2)[nH]c2c(F)cc(F)cc12)N[C@@H]1C(=O)NC[C@@H]1O | < 250
< 250 | COc1ccc(-c2[nH]c3ccccc3c2CCC(=O)N[C@@H]2C(=O)NC[C@H]2O)cc1 | < 250
< 250 | N#Cc1cc(F)cc2c(CCC(=O)N[C@@H]3C(=O)NC[C@H]3O)c(-c3ccc(F)cc3)[nH]c12 | < 250
< 250 | N#Cc1ccc(-c2[nH]c3c(F)cc(F)cc3c2CCC(=O)N[C@H]2CCNC2=O)cc1 | < 250
